Laboratory results published in patent US11850331B2, “Devices with anti-thrombogenic and anti-microbial treatment” (TELEFLEX MEDICAL INCORPORATED, priority 2013, dated 2023).

Legend:
[1] = background statement; cited from earlier work
[2] = system: human blood; test: Thrombin clotting time in whole blood, alexidine solutions (Example 1); format: biochemical; conditions: partial clotting
Method: Solutions of varying alexidine concentrations (50-300 micrograms/mL) were incubated in individual test tubes, each containing 0.50 mL of human blood. The human blood was supplemented with 3.8% sodium citrate. The incubation was for 1 hour on a gyratory shaker set at 24 rpm and 37 degrees C. After 1 hour, 10 microliters of 500 Units/mL thrombin, and 60 microliters of 200 mM CaCl2 was added to each of the incubating blood samples. Blood clotting time was then measured using a stop watch. Table 1 discloses the results.

[3] = system: human blood; test: Fluid phase thrombin clotting time, alexidine versus chlorhexidine (Example 4); format: biochemical; conditions: for clotting time: 6.25 ug/mL; for Thrombin Clotting Time in whole blood: replicates 1-5
Method: The following provides a side-by-side comparison of alexidine with chlorhexidine. Fluid phase experiments were conducted to compare the influences of alexidine and chlorhexidine on thrombin clotting time (Table 6). […] The reaction mixtures contained freshly drawn human blood, alexidine or chlorhexidine as indicated, and exogenously added thrombin. The experiment was repeated five times, as indicated by replicates 1-5. The concentrations of alexidine or chlorhexidine that were used in the experiments were zero ug/mL (baseline), 3.125, 6.25, 12.5, 25, 50, or 100 ug/mL, as indicated. […] This dramatic difference was also observed when higher concentrations of antimicrobials were used in the clotting reactions.

Compound	solubility in water [1]	Thrombin Clotting Time in whole blood ([2]; 0.2 mg/mL alexidine)	Thrombin Clotting Time in whole blood ([2]; 0.3 mg/mL alexidine)	clotting time [3]	Thrombin Clotting Time in whole blood ([3]; 12.5 μg/mL) [h]	Thrombin Clotting Time in whole blood ([3]; 25 μg/mL) [h]	Thrombin Clotting Time in whole blood ([3]; 50 μg/mL) [h]	Thrombin Clotting Time in whole blood ([3]; 100 μg/mL) [h]	potency in inhibiting blood clotting relative to chlorhexidine ([3]; thrombin clotting time, fluid phase)
N=C(NCCCCCCNC(=N)NC(=N)Nc1ccc(Cl)cc1)NC(=N)Nc1ccc(Cl)cc1.O=C(O)[C@H](O)[C@@H](O)[C@H](O)[C@H](O)CO.O=C(O)[C@H](O)[C@@H](O)[C@H](O)[C@H](O)CO [CHG, chlorhexidine gluconate]	highly soluble in water								
CCCCC(CC)CNC(=N)NC(=N)NCCCCCCNC(=N)NC(=N)NCC(CC)CCCC (stereo not shown) [alexidine]	relatively low solubility in water	Greater than 72 hours (partial clotting)	Greater than 72 hours (partial clotting)	about five	>24	>24	>24	>24	four times more potent
[H]/N=C(\N/C(=N/[H])NCCCCCCNC(=N)NC(=N)Nc1ccc(Cl)cc1)Nc1ccc(Cl)cc1 [chlorhexidine]				about thirty			>24	>24	
